The text below walks through data of US20190142971A1, “FORMULATION AND DELIVERY OF MODIFIED NUCLEOSIDE, NUCLEOTIDE, AND NUCLEIC ACID COMPOSITIONS” (ModernaTX, Inc., priority 2013, published 2019).

Data set [1] concerns mice. Description: Example 39: Factor IX mmRNA IM in mice, serum Factor IX at 13 hours. The class given is in vivo. Conditions: 2×100 ug/mouse IM. How it is done:
Human Factor IX mmRNA (Gen1; fully modified 5-methycytosine and pseudouridine) formulated in formulation buffer was delivered to mice via intramuscular injection.
The mice were bled at 13 hours after the intramuscular injection to determine the concentration of human the polypeptide in serum in pg/mL.

The test system of data set [2] is C57/BL6 mice. Put plainly: Example 47: luciferase mRNA IM, SC, IV in mice, bioluminescence imaging (Tables 76-78). The class given is in vivo. The protocol: Modified RNA was delivered to C57/BL6 mice intramuscularly, subcutaneously, or intravenously to evaluate the bio-distribution of modified RNA using luciferase. A formulation buffer used with all delivery methods contained 150 mM sodium chloride, 2 mM calcium chloride, 2 mM Na+-phosphate which included 1.4 mM monobasic sodium phosphate and 0.6 mM of dibasic sodium phosphate, and 0.5 mM ethylenediaminetetraacetic acid (EDTA) was adjusted using sodium hydroxide to reach a final pH of 6.5 before being filtered and sterilized. A 1× concentration was used as the delivery buffer. To create the lipoplexed solution delivered to the mice, in one vial […] was equilibrated for 10 minutes at room temperature in the delivery buffer and in a second vial 10 μl RNAiMAX™ was equilibrated for 10 minutes at room temperature in the delivery buffer. After equilibrium, the vials were combined and delivery buffer was added to reach a final volume of 100 μl which was then incubated for 20 minutes at room temperature. Luciferin was administered by intraperitoneal injection (IP) at 150 mg/kg to each mouse prior to imaging during the plateau phase of the luciferin exposure curve which was between 15 and 30 minutes. To create luciferin, 1 g of D-luciferin potassium or sodium salt was dissolved in 66.6 ml of distilled phosphate buffer solution (DPBS), not containing Mg2+ or Ca2+, to make a 15 mg/ml solution. The solution was gently mixed and passed through a 0.2 μm syringe filter, before being purged with nitrogen, aliquoted and frozen at −80° C. while being protected from light as much as possible. The solution was thawed using a waterbath if luciferin was not dissolved, gently mixed and kept on ice on the day of dosing.
Whole body images were taken of each mouse 2, 8 and 24 hours after dosing. Tissue images and serum was collected from each mouse 24 hours after dosing. Mice administered doses intravenously had their liver, spleen, kidneys, lungs, heart, peri-renal adipose tissue and thymus imaged. Mice administered doses intramuscularly or subcutaneously had their liver, spleen, kidneys, lungs, peri-renal adipose tissue, and muscle at the injection site. From the whole body images the bioluminescence was measured in photon per second for each route of administration and dosing regimen.
The bioluminescence average for the luciferase expression signals for each group at 2, 8 and 24 hours after dosing are shown in Table 76.
Mice were subcutaneously (S.C.) administered either modified luciferase mRNA (Naked-Luc), lipoplexed modified luciferase mRNA (Lipoplex-luc), lipoplexed modified G-CSF mRNA (Lipoplex-G-CSF) or the formation buffer at a single dose of 50 μg of modified mRNA in an injection volume of 100 μl for each formulation. The bioluminescence average for the luciferase expression signals for each group at 2, 8 and 24 hours after dosing are shown in Table 77.
Mice were intravenously (I.V.) administered either modified luciferase mRNA (Naked-Luc), lipoplexed modified luciferase mRNA (Lipoplex-luc), lipoplexed modified G-CSF mRNA (Lipoplex-G-CSF) or the formation buffer at a single dose of 50 μg of modified mRNA in an injection volume of 100 μl for each formulation. The bioluminescence average for the luciferase expression signal in the spleen from each group at 2 hours after dosing is shown in Table 78.

In data set [3] the test system is HEK293 cells. Description: Example 46B: percent modification, HEK293 G-CSF ELISA (Table 75). It is filed as cell-based, Human. (ELISA stands for enzyme-linked immunosorbent assay.)
Data set [4] concerns mice. Put plainly: Example 40: multi-site IM/SC G-CSF mRNA in mice, neutrophil count (Table 65). The class given is in vivo. Conditions: intramuscular, day 3. How it is done:
Injection of four doses or 2×50 ug (two sites) daily for three days (24 hrs interval) was performed. The fourth dose was administered 6 hrs before blood collection and CBC analysis. […] The mice were bled at 72 hours after the first mRNA injection (6 hours after the last mRNA dose) to determine the effect of mRNA-encoded human G-CSF on the neutrophil count. The dosing regimen is shown in Table 65 as are the resulting neutrophil counts (thousands/uL). In Table 65, an asterisks (*) indicate statistical significance at p<0.05.

The subject of data set [5] is BALB/C mice. Put plainly: Example 59: G-CSF mRNA IM in mice, serum human G-CSF and mouse IFN-alpha ELISA (Table 93). It is filed as in vivo.
The mark [6] stands for this setting: I.M., 200 ug/mouse (R848 75 ug/mouse), 50 ul, 8 hours after dosing.

Turning to “Luciferase: luciferase mRNA, SEQ ID NO: 14, Cap1, fully modified with 5-methylcytosine and pseudouridine”, in data set [1], the “Factor IX in serum” value is recorded as “less than 100 pg/mL”. For the same molecule, the Bioluminescence is given as 224,000 photon/sec in data set [2] (I.M., Dose 5 ug, 2 hours); 683,000 photon/sec in data set [2] (I.M., Dose 5 ug, 8 hours); 927,000 photon/sec in data set [2] (I.M., Dose 5 ug, 24 hours); 446,000 photon/sec in data set [2] (I.M., Dose 50 ug, 2 hours); 766,000 photon/sec in data set [2] (I.M., Dose 50 ug, 8 hours); 509,000 photon/sec in data set [2] (I.M., Dose 50 ug, 24 hours). The Bioluminescence in data set [2] (S.C., 50 μg, 2 hours) is reported as 3,700,000 photon/sec; in data set [2] (S.C., 50 μg, 8 hours) it was 8,060,000 photon/sec; in data set [2] (S.C., 50 μg, 24 hours) it was 2,080,000 photon/sec. In addition, the “Bioluminescence of the Spleen” value in data set [2] (I.V., 50 μg, 2 hours after dosing) was 58,400 photon/sec.

B1: G-CSF: modified mRNA encoding human G-CSF, SEQ ID NO: 4, Cap1, fully modified with 5-methylcytosine and pseudouridine; LNP-formulated in Examples 16-22 (nucleic acid)
chain: GGGAAAUAAGAGAGAAAAGAAGAGUAAGAAGAAAUAUAAGAGCCACCAUGGCCGGUCCCGCGACCCAAAGCCCCAUGAAACUUAUGGCCCUGCAGUUGCUGCUUUGGCACUCGGCCCUCUGGACAGUCCAAGAAGCGACUCCUCUCGGACCUGCCUCAUCGUUGCCGCAGUCAUUCCUUUUGAAGUGUCUGGAGCAGGUGCGAAAGAUUCAGGGCGAUGGAGCCGCACUCCAAGAGAAGCUCUGCGCGACAUACAAACUUUGCCAUCCCGAGGAGCUCGUACUGCUCGGGCACAGCUUGGGGAUUCCCUGGGCUCCUCUCUCGUCCUGUCCGUCGCAGGCUUUGCAGUUGGCAGGGUGCCUUUCCCAGCUCCACUCCGGUUUGUUCUUGUAUCAGGGACUGCUGCAAGCCCUUGAGGGAAUCUCGCCAGAAUUGGGCCCGACGCUGGACACGUUGCAGCUCGACGUGGCGGAUUUCGCAACAACCAUCUGGCAGCAGAUGGAGGAACUGGGGAUGGCACCCGCGCUGCAGCCCACGCAGGGGGCAAUGCCGGCCUUUGCGUCCGCGUUUCAGCGCAGGGCGGGUGGAGUCCUCGUAGCGAGCCACCUUCAAUCAUUUUUGGAAGUCUCGUACCGGGUGCUGAGACAUCUUGCGCAGCCGUGAAGCGCUGCCUUCUGCGGGGCUUGCCUUCUGGCCAUGCCCUUCUUCUCUCCCUUGCACCUGUACCUCUUGGUCUUUGAAUAAAGCCUGAGUAGGAAG
modifications: Cap1, 5-methylcytosine, pseudouridine
As to B1, in data set [3], the “half-life of mRNA” value is 8 to 10 h. Moreover, in data set [4], the “increase in neutrophil count above control” value was “four fold increase”. In addition, in data set [5] (setting [6]), the “G-CSF protein (human, serum)” value turned out to be 356.5 pg/mL and the “IFN-alpha expression (mouse, serum)” value came out at 8.87 pg/mL. The “PC Ratio (Protein: Cytokine Ratio)” value in data set [5] (I.M., 200 ug/mouse (R848 75 ug/mouse), 8 hours after dosing) is 40. In addition, the “mouse IFN-alpha in the serum (cytokine response)” value in data set [5] (IM, 8 hours) was “low but detectable cytokine response”.
